Experimental data published in ChEMBL document CHEMBL1828584, “Hybrids of oxoisoaporphine-tacrine congeners: novel acetylcholinesterase and acetylcholinesterase-induced β-amyloid aggregation inhibitors” (Eur J Med Chem, 2011).

What was measured:
[1] = in vitro; details: PAMPA
Description: Permeability of the compound by PAMPA

[2] = target: Cholinesterase (Equus caballus, UniProt P81908)
Description: Inhibition of equine serum BChE using acetylthiocholine chloride as substrate after 15 mins by Ellman's method

[3] = target: Acetylcholinesterase (Electrophorus electricus, UniProt O42275)
Description: Inhibition of Electrophorus electricus AChE using acetylthiocholine chloride as substrate after 15 mins by Ellman's method

Compound	Papp [1] [×10⁻⁶ cm/s]	IC50 [2] [µM]	IC50 [3] [µM]
O=C(CNCCNc1c2c(nc3ccccc13)CCC2)Nc1ccc2c(c1)C(=O)c1cccc3ccnc-2c13	4.6	0.243	0.513
O=C(CCNCCNc1c2c(nc3ccccc13)CCC2)Nc1ccc2c(c1)C(=O)c1cccc3ccnc-2c13	1.9	1.76	0.422
O=C(CCNCCCNc1c2c(nc3ccccc13)CCC2)Nc1ccc2c(c1)C(=O)c1cccc3ccnc-2c13	4.9	0.399	0.411
O=C(CCNCCCCNc1c2c(nc3ccccc13)CCC2)Nc1ccc2c(c1)C(=O)c1cccc3ccnc-2c13	2.4	0.199	0.91
O=C(CNCCNc1c2c(nc3ccccc13)CCCC2)Nc1ccc2c(c1)C(=O)c1cccc3ccnc-2c13	4.8	0.433	0.041
O=C(CCNCCNc1c2c(nc3ccccc13)CCCC2)Nc1ccc2c(c1)C(=O)c1cccc3ccnc-2c13	2.6	0.11	0.0034
O=C(CCNCCCNc1c2c(nc3ccccc13)CCCC2)Nc1ccc2c(c1)C(=O)c1cccc3ccnc-2c13	3.3	0.199	0.0571
O=C(CCNCCCCNc1c2c(nc3ccccc13)CCCC2)Nc1ccc2c(c1)C(=O)c1cccc3ccnc-2c13	2.1	0.288	0.182
O=C(CNCCNc1c2c(nc3ccccc13)CCCCC2)Nc1ccc2c(c1)C(=O)c1cccc3ccnc-2c13	4	0.211	0.061
O=C(CCNCCNc1c2c(nc3ccccc13)CCCCC2)Nc1ccc2c(c1)C(=O)c1cccc3ccnc-2c13	7.9	0.065	0.0517
O=C(CCNCCCNc1c2c(nc3ccccc13)CCCCC2)Nc1ccc2c(c1)C(=O)c1cccc3ccnc-2c13	8.9	0.0211	0.26
O=C(CCNCCCCNc1c2c(nc3ccccc13)CCCCC2)Nc1ccc2c(c1)C(=O)c1cccc3ccnc-2c13	1.1	0.15	0.745
Nc1ccc2c(c1)C(=O)c1cccc3ccnc-2c13	–	> 100	> 100
